Measurements as given in patent EP4813989A1, “CRYSTAL, PHARMACEUTICAL COMPOSITION, PREPARATION METHOD THEREFOR, AND USE THEREOF” (TYK Medicines, Inc., priority 2023, dated 2025).

Columns and labels:
Assay type in all cases: physicochemical
[1] = Stability study of tablets (40°C/75%RH): related substances; details: condition N/A
Experimental: The inventors produced tablet 1 (40 mg) and the tablet 2 (10 mg) according to the formulations in Example 1 and Example 2. The above samples were stored under conditions of 40°C/75%RH (open), 40°C/75%RH (sealed), and 40°C/75%RH (sealed+1 g desiccant) to investigate dissolutions and related substances.

[2] = pH-dependent solubility study; details: increasing with rising pH
Description: Following oral administration, the drug can be absorbed at multiple different sites along the gastrointestinal tract (including via the stomach, duodenum, jejunum, ileum, and colon). There is a significant pH change between the stomach (pH 1-3.5) and the small intestine (pH 4-8), resulting in different pH conditions at each absorption site. […] In dissolution studies, it was observed that the sink condition can be satisfied in pH 6.8 medium supplemented with SDS.

[3] = Solid form stability on standing (XRD/PLM)
Description: The resulting solid sample was subjected to a corresponding characterization test. An XRD pattern of the sample can be seen in FIG. 8.
A crystal form E sample was obtained by suspending and stirring the amorphous sample prepared in Example 2 in a 1,4-dioxane/n-heptane solvent system at room temperature. XRD results of the sample can be seen in FIG. 9. […] On this basis, it was inferred that the crystal form E was a metastable crystal form.
XRD results of the sample can be seen in FIG. 17.
XRD results of the sample can be seen in FIG. 20. TGA/DSC results can be seen in FIG. 21. […] An ^1H NMR spectrum of the crystal form D was obtained by a test in DMSO-d6, and no obvious solvent residue was observed. […] Based on nuclear magnetic resonance data and heating test results of the sample, it was inferred that the crystal form D was a hydrate crystal form.

[4] = listed as Active pharmaceutical ingredient^*2

## C[C@@H](Nc1ccn2ncc(C3=NOC(C)(C)N3)c2n1)c1cc(F)cc(F)c1F.O [Active pharmaceutical ingredient]
[1]
  Individual impurity (RRT) 0.56: <0.05%
  Individual impurity (RRT) 0.66/ 0.67/ 0.69/ 0.70: 0.22%
  Individual impurity (RRT) 0.71/ 0.72/ 0.73/ 0.74: 0.18%
  Individual impurity (RRT) 0.91: <0.05%
  Individual impurity (RRT) 1.02: 0.27%
  Individual impurity (RRT) 1.05/ 1.06: 0.07%
  Individual impurity (RRT) 1.07/ 1.08: 0.18%
  Individual impurity (RRT) 1.14: <0.05%
  Total impurities: 0.92%
[1]; [4]
  Individual impurity (RRT) 0.71/ 0.72/ 0.73/ 0.74: 0.19%
  Individual impurity (RRT) 1.02: 0.32%
  Individual impurity (RRT) 1.07/ 1.08: 0.19%
  Total impurities: 0.99%

## C[C@@H](Nc1ccn2ncc(C3=NOC(C)(C)N3)c2n1)c1cc(F)cc(F)c1F [TY-2136b, (R)-3-(5,5-dimethyl-4,5-dihydro-1,2,4-oxadiazol-3-yl)-N-(1-(2,3,5-trifluorophenyl)ethyl)pyrazolo[1 ,5-a]pyrimidin-5-amine]
[2]
  solubility: generally low

## C[C@@H](Nc1ccn2ncc(C3=NOC(C)(C)N3)c2n1)c1cc(F)cc(F)c1F [crystal form B]
[3]; room humidity (17.3%RH), same day
  Solid form stability: rapidly transformed into a crystal form C

## C[C@@H](Nc1ccn2ncc(C3=NOC(C)(C)N3)c2n1)c1cc(F)cc(F)c1F [crystal form D]
[3]; heating to 120°C and cooling to room temperature
  Solid form stability: transformed into an amorphous form
[3]; standing sealed at room temperature for 2 days
  Crystallinity: significantly reduced
